Holding throughout (type): binding
In data set [1] the test system is matched RNA complement 5′-r(AGCAAAYAACGC)-3′, Y=A. The experiment in a line: Thermal stability (Tm) of 12mer oligomeric compounds duplexed to matched RNA complement. The settings on record: relative to unmodified DNA 12mer ISIS 438705; 1.2 μM, 10 mM sodium phosphate buffer pH 7.2, 100 mM NaCl, 0.1 mM EDTA. The procedure:
(§1) The oligomeric compounds in Table 1 were evaluated for thermal stability (Tm) using the method described herein. The Tm of the modified 12mer oligomeric compounds were compared to an unmodified 12mer DNA oligonucleotide when duplexed to either the matched or mismatched RNA complement.
(§2) Tm's were determined using a Cary 100 Bio spectrophotometer with the Cary Win UV thermal program was used to measure absorbance vs. temperature. For the Tm experiments, the oligomeric compounds were prepared at a concentration of 1.2 μM in 10 mM sodium phosphate buffer (pH 7.2) containing 100 mM NaCl and 0.1 mM EDTA. The concentrations, determined at 85° C. was 1.2 μM after mixing of equal volumes of selected oligomeric compound and complementary matched or mismatched RNA. The oligomeric compounds were hybridized with a complimentary matched or mismatched RNA by heating the duplex to 90° C. for 5 minutes and then cooling to room temperature. Tm measurements were taken using a spectrophotometer while the duplex solution was heated in a cuvette at a rate of 0.5° C./min starting at 15° C. until the temperature was 85° C. Tm values were determined using Vant Hoff calculations (A260 vs temperature curve) using non self-complementary sequences where the minimum absorbance related to the duplex and the maximum absorbance related to the non-duplex single strand are manually integrated into the program. Mismatched thermal stability was also measured and calculated by subtracting values of Tm measured vs the mismatched RNA complement from values of Tm vs the matched RNA complement for each modification.
(§3) The sequence for matched DNA complement is designated herein as SEQ ID No.: 6, 5′-d(AGCAAAXAACGC)-3′, wherein X=A. The sequence for matched RNA complement is designated herein as SEQ ID No.: 6, 5′-r(AGCAAAYAACGC)-3′, wherein Y=A. The mismatched RNA complement sequence is designated herein as SEQ ID No.: 7, 5′-r(AGCAAAZAACGC)-3′, wherein Z=G, C or U.

The test system of data set [2] is matched DNA complement 5′-d(AGCAAAXAACGC)-3′, X=A. In words: Thermal stability (Tm) of 12mer oligomeric compounds duplexed to matched DNA complement. As to conditions: relative to unmodified DNA 12mer ISIS 438705; 1.2 μM, 10 mM sodium phosphate buffer pH 7.2, 100 mM NaCl, 0.1 mM EDTA. The procedure:
as §1, §2, §3

Data set [3] has as its system mismatched RNA complement 5′-r(AGCAAAZAACGC)-3′, Z=C. In words: Mismatch discrimination (Tm) vs mismatched RNA complement, Z=C. The settings on record: 1.2 μM, 10 mM sodium phosphate buffer pH 7.2, 100 mM NaCl, 0.1 mM EDTA. As to the method:
as §1
as §2, with “Mismatched thermal stability was also measured and calculated by subtracting values of Tm measured vs the mismatched RNA complement from values of Tm vs the matched RNA complement for each modification.” left out
as §3

Data set [4] relates to mismatched RNA complement 5′-r(AGCAAAZAACGC)-3′, Z=G. The experiment in a line: Mismatch discrimination (Tm) vs mismatched RNA complement, Z=G. As to conditions: 1.2 μM, 10 mM sodium phosphate buffer pH 7.2, 100 mM NaCl, 0.1 mM EDTA. As to the method:
as §1, §2, §3

In data set [5] the test system is mismatched RNA complement 5′-r(AGCAAAZAACGC)-3′, Z=U. The experiment in a line: Mismatch discrimination (Tm) vs mismatched RNA complement, Z=U. The settings on record: 1.2 μM, 10 mM sodium phosphate buffer pH 7.2, 100 mM NaCl, 0.1 mM EDTA. As to the method:
as §1
as §2, with “Mismatched thermal stability was also measured and calculated by subtracting values of Tm measured vs the mismatched RNA complement from values of Tm vs the matched RNA complement for each modification.” left out
as §3

Consider “A01: 12mer GCGTTTbTTTGCT with one α-L-TriNA (α-L-tricyclic nucleic acid) nucleoside, phosphodiester linkages, SEQ ID No. 5 (DNA GCGTTT_{b}TTTGCT; as printed in the source, key not given here) [Compound A01]”, for which the “ΔTm/mod vs RNA, Matched, Y = A” value in data set [1] was “+7.1 °C”. For the same substance, the “ΔTm/mod vs DNA, Matched, X = A” value in data set [2] is “+2.6 °C”. Moreover, the “ΔTm/mod vs RNA, Mismatched, Z = C; Mismatched Discrimination [Tm(mismatched) − Tm(matched)]” value (shortened to “ΔTm/mod vs RNA, Mismatched, Z = C”) in data set [3] was −16.7 °C. Also, the “ΔTm/mod vs RNA, Mismatched, Z = G; Mismatched Discrimination [Tm(mismatched) − Tm(matched)]” value (“ΔTm/mod vs RNA, Mismatched, Z = G” below) in data set [4] is −5.5 °C. In data set [5], the “ΔTm/mod vs RNA, Mismatched, Z = U; Mismatched Discrimination [Tm(mismatched) − Tm(matched)]” value (from here on “ΔTm/mod vs RNA, Mismatched, Z = U”) is −17.0 °C.

Take “ISIS 438705: unmodified 12mer DNA GCGTTTTTTGCT, phosphodiester linkages, SEQ ID No. 5, purchased from commercial sources (unmodified DNA)”: in data set [1], the “ΔTm/mod vs RNA, Matched, Y = A” value was 0 (ref) ° C. Moreover, in data set [2], the “ΔTm/mod vs DNA, Matched, X = A” value is reported as 0 (ref) ° C. In addition, in data set [3], the “ΔTm/mod vs RNA, Mismatched, Z = C” value was −13.0 °C. For the same substance, the “ΔTm/mod vs RNA, Mismatched, Z = G” value in data set [4] was −4.1 °C. Further, the “ΔTm/mod vs RNA, Mismatched, Z = U” value in data set [5] was −13.2 °C.

Take “ISIS 438707: 12mer GCGTTT1TTTGCT with one LNA nucleoside, phosphodiester linkages, SEQ ID No. 5 (DNA GCGTTT_{1}TTTGCT; as printed in the source, key not given here)”: the “ΔTm/mod vs RNA, Matched, Y = A” value in data set [1] was “+5.5 °C”. For the same substance, the “ΔTm/mod vs DNA, Matched, X = A” value in data set [2] is “+1.7 °C”. The “ΔTm/mod vs RNA, Mismatched, Z = C” value in data set [3] was −15.4 °C. The “ΔTm/mod vs RNA, Mismatched, Z = G” value in data set [4] is −5.4 °C. In addition, in data set [5], the “ΔTm/mod vs RNA, Mismatched, Z = U” value was −13.7 °C.

On to “ISIS 560180: 12mer GCGTTTaTTTGCT with one α-L-LNA nucleoside, phosphodiester linkages, SEQ ID No. 5 (DNA GCGTTT_{a}TTTGCT; as printed in the source, key not given here)”, for which the “ΔTm/mod vs RNA, Matched, Y = A” value in data set [1] was “+5.7 °C”. Moreover, in data set [2], the “ΔTm/mod vs DNA, Matched, X = A” value is “+1.4 °C”. Further, the “ΔTm/mod vs RNA, Mismatched, Z = C” value in data set [3] was −14.8 °C. In addition, the “ΔTm/mod vs RNA, Mismatched, Z = G” value in data set [4] was −4.7 °C. In addition, the “ΔTm/mod vs RNA, Mismatched, Z = U” value in data set [5] was −13.5 °C.

The values above are taken from patent publication US9221864B2, “Tricyclic nucleic acid analogs” (Isis Pharmaceuticals, Inc., priority 2012, dated 2015).
